Assay results taken from patent US7612099B2, “Vinylogous acid derivatives” (Hoffmann-La Roche Inc., priority 2005, dated 2009).
pIC50: −log10 of the molar value.

These compounds were tested against T1, Chymase purified form human skin mast cells (Homo sapiens, UniProt P23946) (assay: chymase peptide substrate assay (AAPF-AMC fluorescence)). Details: 0.02 mM AAPF-substrate, 1 nM Chymase, pH 7.4, room temperature, 30 min pre-incubation.
T1 construct: Chymase purified form human skin mast cells was obtained from Calbiochem; purchased Calbiochem (Merck Biosciences, San Diego, Calif., USA); host or cells: human skin mast cells (tissue-derived, not recombinant)
T1 sequence (P23946 22-247): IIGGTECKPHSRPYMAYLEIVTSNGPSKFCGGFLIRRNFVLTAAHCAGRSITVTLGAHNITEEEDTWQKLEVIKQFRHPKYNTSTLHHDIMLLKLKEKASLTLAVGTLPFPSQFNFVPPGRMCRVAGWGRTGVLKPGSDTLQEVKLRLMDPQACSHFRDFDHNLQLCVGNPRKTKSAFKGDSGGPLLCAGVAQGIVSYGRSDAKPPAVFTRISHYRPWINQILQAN
Type: biochemical
Description: The peptide was synthesized with a purity of 95% from Bachem, Bubendorf, Switzerland). Chymase purified form human skin mast cells was obtained from Calbiochem (Merck Biosciences, San Diego, Calif., USA). The assay buffer was 0.15 M NaCl, 0.05M, Tris HCl, 0.05% CHAPS (3-[(3-Cholamidopropyl)-dimethylammonio]-1-propane sulphonate), 0.1 mg/ml Heparin (Heparin sodium, Sigma, porcine intestinal mucosa), 0.02 mM AAPF-substrate, 1 nM Chymase at pH 7.4. The assay was performed in 96-well plates (Packard Optiplate), with a 0.05 ml volume at room temperature. Chymase activity was indicated by the initial rate of increase in fluorescence at 340/440 nm (excitation/emission) from free 7-amino-4-methylcoumarin released from the substrate. Inhibition of the activity by inhibitory compounds was read after 30 min pre-incubation with the chymase at room temperature in assay buffer without AAPF-substrate. The assay was then started by addition of the indicated concentration of AAPF-substrate.

pIC50 | SMILES
8.00 | CC(=O)NCc1c(C(C2=C(O)[C@@](C)(c3ccccc3)NC2=O)c2ccccc2)[nH]c2cc(C)ccc12 (stereo partly drawn) [Example 63, N-{2-[((R)-4-Hydroxy-5-methyl-2-oxo-5-phenyl-2,5-dihydro-1H-pyrrol-3-yl)-phenyl-methyl]-6-methyl-1H-indol-3-ylmethyl}-acetamide]
8.70 | Cc1c(C(C2=C(O)C(c3ccccc3)CC2=O)c2ccccc2)[nH]c2ccc(F)cc12 (stereo not shown) [Example 79, 2-[(5-Fluoro-3-methyl-1H-indol-2-yl)-phenyl-methyl]-3-hydroxy-4-phenyl-cyclopent-2-enone]
7.82 | CC(=O)NCc1c(C(C2=C(O)[C@@](C)(c3ccccc3)OC2=O)c2ccccc2)[nH]c2cc(C)ccc12 (stereo partly drawn) [Example 72, N-{2-[((R)-4-Hydroxy-5-methyl-2-oxo-5-phenyl-2,5-dihydro-furan-3-yl)-phenyl-methyl]-6-methyl-1H-indol-3-ylmethyl}-acetamide]
8.30 | Cc1c(C(C2=C(O)[C@@](C)(c3ccccc3)NC2=O)c2ccccc2)[nH]c2ccc(F)cc12 (stereo partly drawn) [Example 67, (R)-3-[(5-Fluoro-3-methyl-1H-indol-2-yl)-phenyl-methyl]-4-hydroxy-5-methyl-5-phenyl-1,5-dihydro-pyrrol-2-one]

The next lines start with the compound.

SMILES | pIC50
CC(=O)NCCc1c(C(C2=C(O)C(c3ccccc3)CC2=O)c2ccccc2)[nH]c2cc(F)ccc12 (stereo not shown) [Example 43, N-(2-{6-Fluoro-2-[(2-hydroxy-5-oxo-3-phenyl-cyclopent-1-enyl)-phenyl-methyl]-1H-indol-3-yl}-ethyl)-acetamide] | 8.52
Cc1c(C(C2=C(O)C(C(C)C)N(C)C2=O)c2ccccc2)[nH]c2ccc(F)cc12 (stereo not shown) [Example 11, 3-[(5-Fluoro-3-methyl-1H-indol-2-yl)-phenyl-methyl]-4-hydroxy-5-isopropyl-1-methyl-1,5-dihydro-pyrrol-2-one] | 7.89
CC(=O)NCCc1c(C(C2=C(O)C(Cc3ccccc3)OC2=O)c2ccccc2)[nH]c2cc(F)ccc12 (stereo not shown) [Example 16, N-(2-{2-[(5-Benzyl-4-hydroxy-2-oxo-2,5-dihydro-furan-3-yl)-phenyl-methyl]-6-fluoro-1H-indol-3-yl}-ethyl)-acetamide] | 7.62
